In patent US8895733B2 (Novartis AG, priority 2010, dated 2014):

Assays:
[1] = tested on: inflammatory pain induced by intraplantar injection of Complete Freund's Adjuvant; experiment: FCA (Freund's Complete Adjuvant) test, model of inflammatory pain; assay type: in vivo; details: rat, 1 mg/kg p.o., tested 72 h post FCA injection
Procedure: Compounds of formula (I) may show analgesic activity in the FCA (Freund's Complete Adjuvant) test in the rat, a model of inflammatory pain which is induced by intraplantar injection of Complete Freund's Adjuvant (Stein et al. Pharmac. Biochem. Behav., 1988, 31, 445-451). […] Thus, the local anesthetic effect may not mask the analgesic properties of the compounds (Scott et al., British Journal of Anaesthesia, 1988, 61, 165-8). […] All compounds were tested 72 h post FCA injection.

Nav1.5 = molecular target: T1, Nav1.5 (Homo sapiens, UniProt Q14524); experiment: Inhibition of Nav1.5 as measured using QPatch; assay type: cell-based
T1 construct: expressed in transfected cells
Source text: Patch-clamp electrophysiology is considered the gold standard technique for investigation of ion channel function and pharmacology. Using this method, sodium channel currents can be measured in cells, which stably (or transiently) express the sodium channel subtype of interest. Application of compounds during such experiments provides a functional measure of the activity and potency of compounds affecting the ion channel of interest.
Electrophysiological studies can be performed using automated or manual patch-clamp techniques. Automated patch-clamp instruments suitable for this work include the Ion Works HT (MDS), Ion Works Quattro (MDS), PatchLiner (Nanion technologies), Port-A-Patch (Nanion technologies), QPatch (Sophion) or any other suitable platform.
For recording in automated patch-clamp instruments, cells expressing the voltage-gated sodium channel subtype of interest are dispensed in appropriate chips (plates with more than one recording chambers each containing one or more apertures to generate whole-cell patches), as provided by the manufacturer. Typically, the whole-cell perforated patch configuration is used for probing the pharmacology of compounds in automated patch-clamp electrophysiology on sodium channels. Extracellular and intracellular buffers for such experiments are composed according to the literature, or according to the instructions provided by the manufacturer of the instruments. Test solutions, which contain the compounds to be tested, are applied to the cells expressing the sodium channel of interest by a pipetting system, typically integrated into the robots.
A suitable voltage stimulus protocol is used to activate voltage-gated sodium channel proteins of interest. A typical stimulus protocol may consist of sweeps of sequential voltage pulses starting from a holding potential (i.e. −65 mV), to a more positive and depolarising test pulse potential (i.e. −10 mV) and finally to a more negative and hyperpolarising potential (i.e. −100 mV). According to the biophysics of the voltage-gated ion channel of interest and interest in channel configuration the voltages and durations of the pulses as well as the overall frequency of sweeps applied might vary. Accordingly, a stimulus protocol was designed to assess compounds due to their potential to block NaV1.7 channels primarily in inactivated state. Selectivity over other voltage-gated sodium channel members was assessed by protocols that reflect the native function of the channels (i.e. heart rate or firing of neurons).
Inhibition of Nav1.5 by Compounds of formula (I) as measured using QPatch

Nav 1.7 [2] = molecular target: T2, Nav 1.7 (Homo sapiens, UniProt Q15858); experiment: Whole-cell voltage clamp electrophysiology, manual patch clamp (marker b in Table of Examples); assay type: cell-based; details: marker b: Manual patch clamp data; read-out: Nav 1.7 activity
T2 construct: expressed in transfected cells
How it was run: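 Manual whole-cell patch clamp on cells expressing human NaV1.7, compounds applied by microperfusion. Protocol biased to inactivated-state block: holding −60 mV, hyperpolarizing step −120 mV for 100 ms, then depolarization to −20 mV for 25 ms, pulses at 0.1 Hz.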

Nav 1.7 [3] = molecular target: T2, Nav 1.7; experiment: Nav 1.7 activity in Table of Examples, no platform marker printed; assay type: cell-based; details: no marker a/b/c printed in the cell
Source text: a.IonWork Quattro data, b=Manual patch clamp data, c=Automated patch clamp data M=Method

T2 sequence (Q15858 whole entry): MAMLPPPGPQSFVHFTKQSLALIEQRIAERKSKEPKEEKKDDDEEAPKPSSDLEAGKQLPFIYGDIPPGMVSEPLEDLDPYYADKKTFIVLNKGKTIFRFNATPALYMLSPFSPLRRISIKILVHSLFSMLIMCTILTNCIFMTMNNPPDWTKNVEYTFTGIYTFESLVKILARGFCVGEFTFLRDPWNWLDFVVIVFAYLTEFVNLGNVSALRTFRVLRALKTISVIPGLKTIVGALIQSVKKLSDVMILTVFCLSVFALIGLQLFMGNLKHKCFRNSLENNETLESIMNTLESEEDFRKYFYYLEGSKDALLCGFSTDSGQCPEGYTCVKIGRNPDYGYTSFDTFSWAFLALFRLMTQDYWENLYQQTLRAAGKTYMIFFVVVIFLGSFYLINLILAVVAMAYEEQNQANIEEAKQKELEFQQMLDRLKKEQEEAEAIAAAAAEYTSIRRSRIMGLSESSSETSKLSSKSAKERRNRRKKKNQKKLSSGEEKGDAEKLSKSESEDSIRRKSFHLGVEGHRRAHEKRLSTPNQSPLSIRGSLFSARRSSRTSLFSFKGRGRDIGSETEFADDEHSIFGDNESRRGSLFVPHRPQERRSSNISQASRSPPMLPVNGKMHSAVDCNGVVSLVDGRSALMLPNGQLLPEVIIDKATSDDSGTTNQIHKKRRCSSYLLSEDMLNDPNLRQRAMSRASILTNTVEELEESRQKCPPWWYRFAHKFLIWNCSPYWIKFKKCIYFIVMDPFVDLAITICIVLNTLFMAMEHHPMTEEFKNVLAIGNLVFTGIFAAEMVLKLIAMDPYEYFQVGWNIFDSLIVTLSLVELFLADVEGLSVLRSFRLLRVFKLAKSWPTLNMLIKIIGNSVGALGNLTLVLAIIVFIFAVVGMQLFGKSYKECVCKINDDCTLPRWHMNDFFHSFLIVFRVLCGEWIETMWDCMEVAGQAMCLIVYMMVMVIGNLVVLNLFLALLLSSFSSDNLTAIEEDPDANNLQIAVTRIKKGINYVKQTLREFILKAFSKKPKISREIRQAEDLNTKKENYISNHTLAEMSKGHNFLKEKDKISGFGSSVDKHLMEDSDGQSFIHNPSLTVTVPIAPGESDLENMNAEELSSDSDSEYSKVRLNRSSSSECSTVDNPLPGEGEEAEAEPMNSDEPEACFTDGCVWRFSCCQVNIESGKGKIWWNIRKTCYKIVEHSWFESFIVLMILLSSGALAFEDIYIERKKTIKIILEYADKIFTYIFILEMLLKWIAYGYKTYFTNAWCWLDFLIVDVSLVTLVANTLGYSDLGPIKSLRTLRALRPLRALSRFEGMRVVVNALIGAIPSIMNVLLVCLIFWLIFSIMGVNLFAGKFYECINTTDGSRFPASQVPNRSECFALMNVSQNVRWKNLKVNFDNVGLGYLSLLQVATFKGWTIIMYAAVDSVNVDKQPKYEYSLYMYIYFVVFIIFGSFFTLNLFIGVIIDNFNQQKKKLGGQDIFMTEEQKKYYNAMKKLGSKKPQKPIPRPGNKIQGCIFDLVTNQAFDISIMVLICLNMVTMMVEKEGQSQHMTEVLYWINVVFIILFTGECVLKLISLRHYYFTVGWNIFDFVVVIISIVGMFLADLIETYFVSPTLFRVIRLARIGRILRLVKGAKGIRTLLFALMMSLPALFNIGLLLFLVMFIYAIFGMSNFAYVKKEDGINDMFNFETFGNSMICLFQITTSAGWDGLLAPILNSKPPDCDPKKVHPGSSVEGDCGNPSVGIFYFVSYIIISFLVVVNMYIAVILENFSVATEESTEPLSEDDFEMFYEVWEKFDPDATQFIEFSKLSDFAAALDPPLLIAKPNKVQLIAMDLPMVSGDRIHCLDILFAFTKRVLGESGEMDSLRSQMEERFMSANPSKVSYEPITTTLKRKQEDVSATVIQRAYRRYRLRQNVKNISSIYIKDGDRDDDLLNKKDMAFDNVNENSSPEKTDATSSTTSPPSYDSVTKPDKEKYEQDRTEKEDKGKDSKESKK
T1 sequence (Q14524 whole entry): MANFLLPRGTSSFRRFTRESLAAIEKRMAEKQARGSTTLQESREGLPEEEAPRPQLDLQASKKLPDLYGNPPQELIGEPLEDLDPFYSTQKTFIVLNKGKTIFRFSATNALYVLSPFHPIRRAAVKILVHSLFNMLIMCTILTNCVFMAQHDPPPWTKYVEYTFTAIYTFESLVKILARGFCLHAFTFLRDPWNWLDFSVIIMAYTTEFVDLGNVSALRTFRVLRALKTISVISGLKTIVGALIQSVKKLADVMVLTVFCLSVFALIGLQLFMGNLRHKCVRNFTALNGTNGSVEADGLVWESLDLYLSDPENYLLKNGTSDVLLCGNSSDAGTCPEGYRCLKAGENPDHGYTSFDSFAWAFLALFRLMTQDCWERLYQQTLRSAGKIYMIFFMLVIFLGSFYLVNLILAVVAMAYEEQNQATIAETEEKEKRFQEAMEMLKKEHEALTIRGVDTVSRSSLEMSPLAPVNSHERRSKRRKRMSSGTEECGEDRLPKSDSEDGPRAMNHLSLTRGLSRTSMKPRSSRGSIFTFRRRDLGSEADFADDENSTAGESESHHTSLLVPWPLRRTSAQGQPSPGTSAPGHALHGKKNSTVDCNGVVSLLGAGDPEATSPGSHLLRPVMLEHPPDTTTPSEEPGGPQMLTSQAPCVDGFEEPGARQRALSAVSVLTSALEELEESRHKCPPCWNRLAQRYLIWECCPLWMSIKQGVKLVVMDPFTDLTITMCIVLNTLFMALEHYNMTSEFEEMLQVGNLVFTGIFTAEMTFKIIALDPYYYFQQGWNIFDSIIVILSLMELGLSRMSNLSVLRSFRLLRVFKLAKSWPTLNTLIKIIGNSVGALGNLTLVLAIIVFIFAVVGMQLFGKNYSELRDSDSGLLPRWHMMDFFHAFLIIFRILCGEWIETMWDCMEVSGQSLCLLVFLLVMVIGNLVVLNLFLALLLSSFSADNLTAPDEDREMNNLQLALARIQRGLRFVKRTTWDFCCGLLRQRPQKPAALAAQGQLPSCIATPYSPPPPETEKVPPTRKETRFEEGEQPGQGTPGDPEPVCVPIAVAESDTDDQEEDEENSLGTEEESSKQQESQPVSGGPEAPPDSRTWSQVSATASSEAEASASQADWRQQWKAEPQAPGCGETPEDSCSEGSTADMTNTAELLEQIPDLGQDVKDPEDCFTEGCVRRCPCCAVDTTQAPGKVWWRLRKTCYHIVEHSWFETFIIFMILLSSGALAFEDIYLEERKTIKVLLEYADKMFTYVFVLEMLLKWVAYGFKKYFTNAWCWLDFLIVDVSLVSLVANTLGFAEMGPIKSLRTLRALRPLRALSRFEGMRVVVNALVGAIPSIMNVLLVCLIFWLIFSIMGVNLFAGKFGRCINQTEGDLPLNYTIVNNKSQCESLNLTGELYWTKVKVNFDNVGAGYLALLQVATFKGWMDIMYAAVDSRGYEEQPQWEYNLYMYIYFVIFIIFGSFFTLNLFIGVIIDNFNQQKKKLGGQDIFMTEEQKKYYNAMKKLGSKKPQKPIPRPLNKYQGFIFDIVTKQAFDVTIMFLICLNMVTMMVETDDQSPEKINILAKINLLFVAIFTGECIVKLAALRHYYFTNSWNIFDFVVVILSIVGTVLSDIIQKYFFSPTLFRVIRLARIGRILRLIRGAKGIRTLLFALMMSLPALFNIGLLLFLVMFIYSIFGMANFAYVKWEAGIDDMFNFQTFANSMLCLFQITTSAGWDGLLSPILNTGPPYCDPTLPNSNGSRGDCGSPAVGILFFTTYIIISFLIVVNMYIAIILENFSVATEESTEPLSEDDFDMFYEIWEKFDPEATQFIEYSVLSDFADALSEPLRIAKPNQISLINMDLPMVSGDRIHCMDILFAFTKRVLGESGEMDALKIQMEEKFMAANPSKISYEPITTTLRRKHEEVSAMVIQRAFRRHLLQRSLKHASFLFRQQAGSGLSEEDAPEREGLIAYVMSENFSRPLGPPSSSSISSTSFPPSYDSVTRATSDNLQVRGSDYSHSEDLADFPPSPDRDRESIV

Row | IC50 (Nav 1.7 [2]) [µM] | IC50 (Nav 1.7 [3]) [µM] | SMILES | analgesic efficacy in FCA test [1] | IC50 (Nav1.5) [µM]
1 | 0.044 | – | Nc1nc(Nc2ccccc2)nc(-c2noc(-c3nccs3)n2)n1 [Example 130, N-Phenyl-6-(5-thiazol-2-yl-[1,2,4]oxadiazol-3-yl)-[1,3,5]triazine2,4-diamine] | efficacious | 1.67
2 | – | 0.073 | CN(c1ccccc1)c1nc(N)nc(-c2noc(-c3ccc(COCC(F)(F)F)nc3)n2)n1 [Example 291, 2-N-Methyl-2-N-phenyl-6-(5-{6-[(2,2,2-trifluoroethoxy)methyl]pyridin-3-yl}-1,2,4-oxadiazol-3-yl)-1,3,5-triazine-2,4-diamine] | – | –
